PMC10779222, “Copper(II) Complexes with 1-(Isoquinolin-3-yl)heteroalkyl-2-ones: Synthesis, Structure and Evaluation of Anticancer, Antimicrobial and Antioxidant Potential” (International Journal of Molecular Sciences, 2023)
Converted amounts (≈) assume the structure as drawn.

Key:
[1] = DPPH radical scavenging assay; settings: ±SD; 30 min, room temperature
Method: The DPPH radical scavenging assay of samples was performed with ascorbic acid as a positive control. Briefly, 100 μL of different concentrations of the complexes, dissolved in DMSO, was mixed with 100 μL of 0.06 mM DPPH methanolic solution and incubated at room temperature in the dark for 30 min. The change in absorbance at λ = 517 nm was analyzed with the use of a 96-well microplate reader (Epoch, BioTek System, Winooski, VT, USA). The control was composed of DPPH and DMSO. DPPH inhibition was calculated according to the following equation:DPPH Inhibition (%) = [(Acontrol − Asample)/Acontrol] × 100% The radical scavenging activity of the samples was shown as the IC50 value (the concentration of the analyzed samples that caused a decrease in the non-reduced form of the DPPH radical by 50%).

[2] = ABTS radical scavenging assay; settings: ±SD; 10 min, 30 °C
Method: The ABTS radical scavenging assay of samples (ligands or complexes) was performed with ascorbic acid as a positive control. Briefly, 30 μL of different concentrations of the samples, dissolved in DMSO, was mixed with 170 μL of ABTS solution (2 mM ABTS diammonium salt, 3.5 mM potassium persulfate) and completed with water to a final volume of 300 μL. ABTS solution with DMSO was used as a control. […] ABTS inhibition was calculated according to the following equation:ABTS Inhibition (%) = [(Acontrol − Asample)/Acontrol] × 100% The radical scavenging activity of the samples was shown as the IC50 value (the concentration of the analyzed samples that caused a decrease in the non-reduced form of the ABTS radical by 50%).

[3] = tested on: CCD-1059Sk (human normal skin fibroblasts); assay: MTT cytotoxicity assay on non-cancerous fibroblasts; assay type: cell-based; settings: 24 h incubation, non-cancerous cells
Method: (§1) Cytotoxic activity of the investigated compounds was evaluated against T98G (glioblastoma), HepG2 (hepatoma), LS-180 (colon cancer) and A375 (melanoma) cell lines. Human normal skin fibroblasts, CCD-1059Sk (CRL-2072), were used as reference (non-cancerous) cells. All of the cell lines were obtained from American Type Culture Collection (ATCC; Manassas, VA, USA). A375, T98G and CCD-1059Sk cells were cultured in Dulbecco’s Modified Eagle’s Medium (DMEM) (Sigma Aldrich, St. Louis, MO, USA) supplemented with 10% FBS, penicillin (100 U/mL) and streptomycin (100 μg/mL). LS-180 and HepG2 cells were cultured in Eagle’s Minimum Essential Medium supplemented with 10% FBS, penicillin (100 U/mL) and streptomycin (100 μg/mL). All of the cells were maintained at 37 °C in a humidified atmosphere of 5% CO2. The compounds were dissolved in DMSO in order to obtain stock solutions. At the day of the experiment, the suspension of cells (1 × 10^5 cells/mL) was distributed onto 96-well plates at a volume of 100 μL/well. After attachment, the cells were treated with the increased concentrations of the tested compounds in medium containing 2% FBS and incubated for 24 h. Then, the medium was removed from wells, and cells were rinsed with PBS. Afterwards, 15 μL of MTT working solution (5 mg/mL in PBS) was added to each well, and the plates were incubated for 3 h. Subsequently, 100 μL of 10% SDS solution was added to each well in order to dissolve the precipitated formazan crystals. After overnight incubation at 37 °C, the absorbance of the obtained solution was measured at λ = 570 nm using a microplate reader (Epoch, BioTek Instruments, Inc., Winooski, VT, USA). At least two independent experiments were performed in triplicate. […] IC50 values of the investigated derivatives and positive control (etoposide) were calculated using the IC50 online calculator [101].

HepG2 (hepatoma) = assay: MTT cytotoxicity assay on HepG2 cells; assay type: cell-based, human; settings: MTT, 24 h incubation
Method: as §1

[4] = tested on: A375, HepG2, LS-180, T98G and CCD-1059Sk cell lines; assay: MTT cytotoxicity assay, summary statements over several cell lines; assay type: cell-based
Method: as §1

A375 (melanoma) = assay: MTT cytotoxicity assay on A375 cells; assay type: cell-based, human; settings: 24 h incubation
Method: as §1

T98G (glioblastoma) = assay: MTT cytotoxicity assay on T98G cells; assay type: cell-based; settings: MTT, 24 h incubation
Method: as §1

LS-180 (colon cancer) = assay: MTT cytotoxicity assay on LS-180 cells; assay type: cell-based, human; settings: 24 h incubation
Method: as §1

[5] = tested on: Candida albicans ATCC 102231; assay: Two-fold microdilution broth method, MIC; assay type: cell-based; settings: 35 °C, 24 h
From the text: (§2) Antibacterial and antifungal activities of the free ligands L2, L3 and L4 and the corresponding copper(II) complexes C2, C3 and C4 were screened using the two-fold microdilution broth method. Minimal inhibitory concentrations (MICs) of tested compounds for the panel of reference Gram-positive bacteria, including Staphylococcus aureus ATCC 25923, Staphylococcus aureus ATCC BAA-1707, Staphylococcus epidermidis ATCC 12228, Micrococcus luteus ATCC 10240 and Bacillus cereus ATCC 10876; Gram-negative bacteria, including Salmonella Typhimurium ATCC 14028, Escherichia coli ATCC 25922, Proteus mirabilis ATCC 12453, Klebsiella pneumoniae ATCC 13883 and Pseudomonas aeruginosa ATCC 9027; and yeasts, including Candida albicans ATCC 102231, Candida parapsilosis ATCC 22019 and Candida glabrata ATCC 90030 were determined. The procedure has been described in detail before. Briefly, the solutions of tested compounds dissolved in dimethylosulfoxide (DMSO) were suspended in Mueller–Hinton broth for bacteria or Mueller–Hinton broth with 2% glucose for fungi. Then, the series of two-fold dilutions were carried out in the sterile Nunc™ MicroWell™ 96-Well Microplates (ThermoFisher Scientific Inc.), obtaining concentrations from 1000 to 7.8 mg/L in the appropriate medium. Simultaneously, the inocula of 24 h cultures of microorganisms in sterile physiological saline (0.5 McFarland standard density) were prepared and added to each well, obtaining final density of 5 × 10^5 CFU/mL for bacteria and 5 × 10^4 CFU/mL for yeasts. Proper positive (inoculum without tested compound) and negative (compound without inoculum) controls were added in each microplate. After incubation (35 °C, 24 h), the growth of microorganisms was measured spectrophotometrically at 600 nm (BioTEK ELx808, Bio-Tek Instruments, Inc., Winooski, VT, USA). MICs were marked at the lowest concentration of the compound without the growth of bacteria or fungi.

[6] = tested on: Candida glabrata ATCC 90030; assay: Two-fold microdilution broth method, MIC; assay type: cell-based; settings: 35 °C, 24 h
From the text: as §2

[7] = tested on: Candida parapsilosis ATCC 22019; assay: Two-fold microdilution broth method, MIC; assay type: cell-based; settings: 35 °C, 24 h
From the text: as §2

| Compound | IC50 DPPH [1] | IC50 ABTS [2] | IC50 ± SD, CCD-1059-Sk [3] | IC50 ± SD, HepG2 (HepG2 (hepatoma)) | IC50, HepG2 and T98G ([4]; range over HepG2 and T98G) | IC50 ± SD, A375 (A375 (melanoma)) | IC50 ± SD, T98G (T98G (glioblastoma)) | IC50 ± SD, LS180 (LS-180 (colon cancer)) | MIC, C. albicans ATCC 102231 [5] | MIC, C. glabrata ATCC 90030 [6] | MIC, C. parapsilosis ATCC 22019 [7] | IC50, HepG2, LS180 and T98G ([4]; range over HepG2, LS180 and T98G) |
| --- | --- | --- | --- | --- | --- | --- | --- | --- | --- | --- | --- | --- |
| O=C1O[C@H]([C@@H](O)CO)C(O)=C1O [Ascorbic acid, reference compound] | 11.65 ± 0.54 µg/mL (≈ 66.1 µM) | 20.15 ± 0.33 µg/mL (≈ 114 µM) | – | – | – | – | – | – | – | – | – | – |
| O=C1CCN1c1cc2ccccc2cn1.O=C1CCN1c1cc2ccccc2cn1.[Cl][Cu][Cl] [C1, Dichloro{bis[1-(Isoquinolin-3-yl)azetidin-2-one]}copper(II)] | 37.45 ± 0.66 µg/mL | 112.67 ± 1.8 µg/mL | 18.83 ± 0.91 µg/mL | 14.89 ± 0.56 µg/mL | 8.25 to 14.89 µg/mL | 37.97 ± 3.01 µg/mL | 8.25 ± 0.36 µg/mL | 11.46 ± 0.69 µg/mL | – | – | – | – |
| CN1CCN(c2cc3ccccc3cn2)C1=O.[Cl][Cu][Cl] [C3, Dichloro[1-(Isoquinolin-3-yl)-3-methylimidazolidin-2-one]copper(II)] | 380.65 ± 2.74 µg/mL | 106.19 ± 2.55 µg/mL | 25.17 ± 0.85 µg/mL | 12.00 ± 0.36 µg/mL | – | 22.78 ± 1.14 µg/mL | 10.55 ± 0.74 µg/mL | 7.09 ± 0.53 µg/mL | 1000 µg/mL | 1000 µg/mL | 1000 µg/mL | – |
| CCN1CCN(c2cc3ccccc3cn2)C1=O.[Cl][Cu][Cl] [C4, Dichloro[1-ethyl-3-(isoquinolin-3-yl)imidazolidin-2-one]copper(II)] | 26.46 ± 1.04 µg/mL | 72.5 ± 0.97 µg/mL | 18.25 ± 1.37 µg/mL | – | – | 37.80 ± 3.11 µg/mL | 9.27 ± 0.11 µg/mL | 5.92 ± 0.54 µg/mL | 500 µg/mL | >1000 µg/mL | >1000 µg/mL | 5.92 to 9.27 µg/mL |
